Results reported in PubChem BioAssay AID1944 (The Scripps Research Institute Molecular Screening Center, 2009).
Activity calls are given as the source filed them. No rule for the calls is given here.

The compounds below were run against Replicase polyprotein 1ab (Severe acute respiratory syndrome coronavirus) (UniProt P0C6X7) (assay: papain-like protease inhibition, dose response, biochemical, luminescence, counter-screen for SARS-CoV 3CLpro inhibitor project (AID 1944)). Settings: SARS-CoV PLpro enzymatic assay.
Cc1cc(C)c(C)c(S(=O)(=O)N2CCN(C(=O)c3cc(=O)[nH]c4ccccc34)CC2)c1C was tested, and the IC50 was > 59.6 µM (inactive). With CCc1cc(=O)oc2cc(OC(=O)c3ccco3)ccc12 the IC50 was > 59.6 µM (inactive). O=C(CSc1ccccn1)Nc1nonc1[N+](=O)[O-] was tested, and the IC50 was > 59.6 µM (inactive). In the case of CCc1cccc(CC)c1N(COC)C(=O)Cn1nnc2ccccc21, the IC50 is reported as > 59.6 µM (inactive). With Cc1cccc2c1N(CCOc1ccccc1)C(=O)C2=O the IC50 was > 59.6 µM (inactive). Compound Cc1ccc(C(=O)n2cnc3ccccc32)cc1C has an IC50 of 9.11 µM. COc1cc(C2CC(c3cccs3)=NN2C(=O)CCl)ccc1OC(F)F (configuration not stated) was tested, and the IC50 was > 59.6 µM (inactive). For COC(=O)c1ccc(OC(=O)CN2C(=O)c3ccccc3C2=O)cc1, the IC50 was “inactive”. With Cc1cc(C)c(N(C(=O)Cn2nnc3ccccc32)C(C(=O)NC(C)(C)C)c2ccsc2)c(C)c1 (configuration not stated) the IC50 was > 59.6 µM (inactive). For CC(C)C[C@H](NC(=O)c1nc[nH]c1C(=O)NCc1ccc(CNC(=O)OC(C)(C)C)cc1)C(=O)OC(C)(C)C, the IC50 was > 59.6 µM (inactive). For Cc1ccc(C2CC(c3cccs3)=NN2C(=O)CCl)cc1 (configuration not stated), the IC50 was “inactive”. In the case of O=Cc1cn(Cc2ccccc2)nc1-c1cccnc1, the IC50 is reported as > 59.6 µM (inactive). O=C(Cn1nnc2ccccc21)c1ccc(Cl)cc1 showed an IC50 of 3.97 µM. In the case of CC(=O)Nc1ccc(N(C(=O)Cn2nnc3ccccc32)C(C(=O)NC2CCCC2)c2ccc(O)c(O)c2)cc1 (configuration not stated), the IC50 is reported as > 59.6 µM (inactive). With CC(=O)NC1C(=O)N(CCN2CCOCC2)c2ccc(Br)cc21 (configuration not stated) the IC50 was > 59.6 µM (inactive). In the case of O=C(c1cc(=O)[nH]c2ccccc12)N1CCN(c2cccc(C(F)(F)F)c2)CC1, the IC50 is reported as > 59.6 µM (inactive). CC(=O)NC1C(=O)N(CCN2CCOCC2)c2ccc(F)cc21 (configuration not stated) was tested, and the IC50 was > 59.6 µM (inactive). In the case of CCC(C)(C)NC(=O)C(c1ccc(O)cc1)N(C(=O)Cn1nnc2ccccc21)c1ccc(NC(C)=O)cc1 (configuration not stated), the IC50 is reported as > 59.6 µM (inactive). With CC1CCC2C(=O)N(c3cc(Cl)ccc3OC(=O)c3ccco3)C(=O)C2C1 (configuration not stated) the IC50 was > 59.6 µM (inactive). For O=C(O)COc1ccc(Br)cc1C(c1c(C(=O)O)[nH]c2ccccc12)c1c(C(=O)O)[nH]c2ccccc12, the IC50 was “inactive”. In the case of O=C(Oc1cccnc1)c1ccc(Cl)cc1, the IC50 is reported as 7.99 µM. COc1ccc2cc(C3(C)NC(=O)N(CC(=O)NCc4ccco4)C3=O)ccc2c1 (configuration not stated) was tested, and the IC50 was > 59.6 µM (inactive). In the case of O=C(c1cc(=O)[nH]c2ccccc12)N1CCN(c2ccccc2)CC1, the IC50 is reported as > 59.6 µM (inactive). With O=C1NC(=O)N(c2ccccc2F)C(=O)/C1=C/c1cn(CC(=O)N2CCOCC2)c2ccccc12 the IC50 was > 59.6 µM (inactive). For Cc1sc(NC(=O)CCl)c(C(=O)c2ccccc2)c1C, the IC50 was > 59.6 µM (inactive). In the case of O=C(O)c1[nH]c2ccccc2c1C(c1cc(Br)ccc1O)c1c(C(=O)O)[nH]c2ccccc12, the IC50 is reported as 9.17 µM. For CC(C)c1ccc(N(C(=O)c2ccco2)C(C(=O)NC2CCCC2)c2cccnc2)cc1 (configuration not stated), the IC50 was > 59.6 µM (inactive). In the case of CCC(C)c1ccc(N(C(=O)c2ccco2)C(C(=O)NC2CCCC2)c2cccnc2)cc1 (configuration not stated), the IC50 is reported as “inactive”. Nc1ncc(Br)cc1S(=O)(=O)Nc1cc(C(F)(F)F)cc(C(F)(F)F)c1 was tested, and the IC50 was > 59.6 µM (inactive). COc1ccccc1OCCNC(=O)c1cc(=O)[nH]c2ccccc12 was tested, and the IC50 was > 59.6 µM (inactive). In the case of CCc1nc(N2CCN(C(=O)CCl)CC2)c2c3c(sc2n1)CC(C)CC3 (configuration not stated), the IC50 is reported as > 59.6 µM (inactive). COc1cc2c(cc1OC)C(c1cc(Br)ccc1F)N(C(=O)CCl)CC2 (configuration not stated) was tested, and the IC50 was > 59.6 µM (inactive). In the case of O=C(Cn1nnc2ccccc21)c1ccc(Br)cc1, the IC50 is reported as 2.3 µM. With COc1ccc(C(=O)Oc2cccnc2)cc1 the IC50 was > 59.6 µM (inactive). For O=C1C(=O)N(CC2COc3ccccc3O2)c2ccccc21 (configuration not stated), the IC50 was > 59.6 µM (inactive). With Cc1ccc(C(=O)c2c3ccc(C(F)(F)F)cc3[n+]([O-])n2CCC(N)=O)cc1 the IC50 was > 59.6 µM (inactive). With Cc1ccc(C2=NN(C(=O)CCl)C(c3ccco3)C2)o1 (configuration not stated) the IC50 was > 59.6 µM (inactive). With Cc1cc(C(=O)CCl)c(C)n1-c1cccc([N+](=O)[O-])c1 the IC50 was > 59.6 µM (inactive). Cn1nc(-c2ccc(Cl)cc2)nc2c(=O)n(C)c(=O)nc1-2 gave an IC50 of 0.111 µM. With O=C(Nc1ccc(OCC(F)(F)C(F)F)c(C(F)(F)F)c1)c1ccccc1O the IC50 was 0.596 µM. O=c1[nH]c(=O)n(-c2ccccc2F)c(O)c1/C=C1\C=Nc2ccccc21 was tested, and the IC50 was > 59.6 µM (inactive). N#CCC(=O)N/N=C/c1c(-c2ccccc2)n(-c2ccccc2)c2ccccc12 was tested, and the IC50 was > 59.6 µM (inactive). In the case of COc1cc(/C=N\NC(=O)Cn2nnc3ccccc32)cc(OC)c1OC, the IC50 is reported as > 59.6 µM (inactive). Compound O=C(/C=C/c1cccs1)Nc1scc(-c2ccccc2)c1C(=O)O has an IC50 of 0.0455 µM. O=C(CCl)N(CCc1ccccc1)CCc1ccccc1 was tested, and the IC50 was “inactive”. In the case of Cc1cc(=O)oc2cc(OC(=O)c3ccco3)ccc12, the IC50 is reported as > 59.6 µM (inactive). For C[C@@]12C(=O)N(c3cccc(Br)c3)C(=O)N1[C@H](c1ccc(Cl)cc1)[C@@H]1C(=O)N(C3CCCCC3)C(=O)[C@@H]12, the IC50 was > 59.6 µM (inactive). For NC(=O)CCn1c(C(=O)c2cccc([N+](=O)[O-])c2)c2ccccc2[n+]1[O-], the IC50 was > 59.6 µM (inactive). For Cc1ccc2[nH]c3c(c2c1)CN(C(=O)CN1c2ccc(F)cc2CCC1C)CC3 (configuration not stated), the IC50 was > 59.6 µM (inactive). Cc1ccc(C(=O)O)cc1NC(=S)NC(=O)c1ccc(COc2ccccc2)cc1 showed an IC50 of 2.48 µM. COc1ccc(C(C(=O)NCC2CCCO2)N(C(=O)Cn2nnc3ccccc32)c2ccc(NC(C)=O)cc2)cc1 (configuration not stated) was tested, and the IC50 was > 59.6 µM (inactive). With CN(C)S(=O)(=O)c1cccc(NC(=O)CSc2cccc3cccnc23)c1 the IC50 was > 59.6 µM (inactive). In the case of CCC(C)(C)NC(=O)C(c1cccn1C)N(C(=O)Cn1nnc2ccccc21)c1ccc(NC(C)=O)cc1 (configuration not stated), the IC50 is reported as > 59.6 µM (inactive). For COc1cccc(C(C(=O)NCC2CCCO2)N(C(=O)Cn2nnc3ccccc32)c2ccc(NC(C)=O)cc2)c1 (configuration not stated), the IC50 was > 59.6 µM (inactive). With NC(=O)CCn1c(C(=O)c2ccc(Cl)cc2)c2ccccc2[n+]1[O-] the IC50 was > 59.6 µM (inactive). With Cc1cccc(N2CCN(C(=O)c3cc(=O)[nH]c4ccccc34)CC2)c1C the IC50 was > 59.6 µM (inactive). With CCc1ccc2c(c1)C(NC(C)=O)C(=O)N2CCN1CCOCC1 (configuration not stated) the IC50 was > 59.6 µM (inactive). In the case of O=C(Nc1ccccc1)NN(C(=O)CCl)c1ccccc1, the IC50 is reported as > 59.6 µM (inactive). In the case of CC(C)c1ccc(N(C(=O)c2csnn2)C(C(=O)NC2CCCC2)c2cccnc2)cc1 (configuration not stated), the IC50 is reported as > 59.6 µM (inactive). With NC(=O)CCn1c(C(=O)c2cc(Cl)c(N)c(Cl)c2)c2ccccc2[n+]1[O-] the IC50 was > 59.6 µM (inactive). Work on Cn1cnc2cc(NC(=O)c3ccc(Cl)cc3)ccc21 yielded an IC50 of 3.28 µM. In the case of CC(C)C12CN(C(=O)c3ccccc3[N+](=O)[O-])CC(C(C)C)(CN(C(=O)c3ccccc3[N+](=O)[O-])C1)C2=O, the IC50 is reported as > 59.6 µM (inactive). O=C(/C=C/c1ccccc1Cl)Nc1cccnc1 gave an IC50 of 0.0388 µM. For COc1ccc(C2CC(c3cccs3)=NN2C(=O)CCl)cc1OC (configuration not stated), the IC50 was > 59.6 µM (inactive). For CCOc1ccc2c(c1)C(=O)C(=O)N2CC1COc2ccccc2O1 (configuration not stated), the IC50 was > 59.6 µM (inactive). With COc1ccc(N(Cc2cc(=O)[nH]c3ccccc23)C(=O)CCl)cc1 the IC50 was > 59.6 µM (inactive). In the case of COc1cccc(C(C(=O)Nc2ccc(F)cc2)N(C(=O)Cn2nnc3ccccc32)C2CC2)c1 (configuration not stated), the IC50 is reported as > 59.6 µM (inactive). CC(=O)c1c(OC(=O)c2ccco2)c2ccccc2n1C was tested, and the IC50 was > 59.6 µM (inactive). CCCCOc1ccc(C(=O)Oc2cccnc2)cc1 was tested, and the IC50 was 1.61 µM. With Cc1cc(C)n(C(=O)c2ccc(C)c(Br)c2)n1 the IC50 was “inactive”. With CC1(C)C2CC=C(/C=N/NC(=S)Nc3cccnc3)C1C2 (configuration not stated) the IC50 was > 59.6 µM (inactive). O=C(O)c1ccc2ncsc2c1 showed an IC50 of 7.39 µM. In the case of Cc1ccc(/C=C/C(=O)c2cc(Br)ccc2OC(=O)c2ccco2)cc1, the IC50 is reported as > 59.6 µM (inactive). For Cc1ccc(-c2cc(NC(=O)c3ccccc3[N+](=O)[O-])n[nH]2)cc1, the IC50 was “inactive”. Cc1nnc(SC(=O)N2c3ccccc3Sc3ccccc32)s1 was tested, and the IC50 was > 59.6 µM (inactive). In the case of O=C(/C=C/c1ccc(Cl)c([N+](=O)[O-])c1)NCc1cccnc1, the IC50 is reported as > 59.6 µM (inactive). For Cc1ccc(C(=O)c2c3ccccc3[n+]([O-])n2CCC(N)=O)cc1, the IC50 was 8.04 µM. With CCn1nc(-c2ccccc2)nc2c(=O)n(C)c(=O)nc1-2 the IC50 was 0.165 µM. In the case of O=C(Oc1ccc(Br)cc1C(=O)/C=C/c1ccccc1F)c1ccco1, the IC50 is reported as > 59.6 µM (inactive). In the case of COc1ccc(N(C(=O)Cn2nnc3ccccc32)C2(C(=O)NC3CCCC3)CCCCC2)cc1, the IC50 is reported as > 59.6 µM (inactive). With COc1ccc2c(c1)C(=O)C(=O)N2CC1COc2ccccc2O1 (configuration not stated) the IC50 was > 59.6 µM (inactive). In the case of Cc1cc(NC(=O)COn2nnc3ccc(S(C)(=O)=O)cc32)ccc1Br, the IC50 is reported as > 59.6 µM (inactive). O=C(OCC(=O)N1c2ccccc2Sc2ccccc21)c1cccnc1 was tested, and the IC50 was > 59.6 µM (inactive). In the case of CCN(CC)C(=O)Cn1cc(/C=C2\C(=O)NC(=O)N(c3ccccc3F)C2=O)c2ccccc21, the IC50 is reported as > 59.6 µM (inactive). With Cc1ccc(C(=O)Oc2ccc3c(c2)ncn3C)cc1 the IC50 was 0.577 µM. In the case of O=C(Oc1ccc(Cl)cc1N1C(=O)CCC1=O)c1ccco1, the IC50 is reported as > 59.6 µM (inactive). With O=C(Cc1ccc(Cl)c(Cl)c1)Nc1cccnc1 the IC50 was “inactive”. With COc1ccc(C2C(O)C(c3c[nH]c4ccccc34)=NN2C(=O)CCl)cc1 (configuration not stated) the IC50 was > 59.6 µM (inactive). COc1ccccc1/C=C/C(=O)c1cc(Br)ccc1OC(=O)c1ccco1 was tested, and the IC50 was “inactive”. CC(=O)c1cc(-c2ccccc2)[nH]c1N1CCCC1 was tested, and the IC50 was “inactive”. Compound O=C(N/N=C\c1c(O)ccc2ccccc12)c1cncc(Br)c1 has an IC50 of 8.21 µM. In the case of Cc1cc(NC(=O)COC(=O)C(Nc2ccc(C(F)(F)F)cc2Cl)C(C)C)no1 (configuration not stated), the IC50 is reported as > 59.6 µM (inactive). For CC(=O)n1cc(N(C(=O)CCl)c2ccc([N+](=O)[O-])cc2)c2ccccc21, the IC50 was > 59.6 µM (inactive). Compound O=C(/C=C/c1c(F)cccc1Cl)Nc1cccnc1 has an IC50 of 0.0628 µM. Cc1cc(=O)oc2cc(NC(=O)Cc3ccccc3[N+](=O)[O-])ccc12 was tested, and the IC50 was > 59.6 µM (inactive). In the case of O=C1C(=O)N(CCCc2ccccc2)c2ccccc21, the IC50 is reported as “inactive”. With O=C(NCc1ccco1)C(c1ccco1)N(C(=O)Cn1nnc2ccccc21)c1ccc2c(c1)CCC2 (configuration not stated) the IC50 was > 59.6 µM (inactive).
